Measured values taken from the supplement of paper PMC10307832.

Assays:
Assay in all cases: relative viability (nuclei count vs DMSO), 5 days (fraction); higher = more cells survive
NCI-H2087 = system: NCI-H2087
In short: (§1)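 Relative viability is defined as nuclei in treated wells over nuclei in vehicle wells. Duplicate plates were run and medians reported. Lung cancer cell lines in 1536-well plates were dosed by pin tool one day after seeding, with one drug or with a fixed anchor-drug dose plus five library-drug doses (not always all listed) in √10 steps, and nuclei were counted after 5 days.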

LOU-NH91 = system: LOU-NH91
In short: as §1

NCI-H727 = system: NCI-H727
In short: as §1

LCLC-97TM1 = system: LCLC-97TM1
In short: as §1

NCI-H1650 = system: NCI-H1650
In short: as §1

EKVX = system: EKVX
In short: as §1

NCI-H1792 = system: NCI-H1792
In short: as §1

NCI-H1563 = system: NCI-H1563
In short: as §1

HCC-827 = system: HCC-827
In short: as §1

LU99A = system: LU99A
In short: as §1

HCC-78 = system: HCC-78
In short: as §1

EPLC-272H = system: EPLC-272H
In short: as §1

BEN = system: BEN
In short: as §1

SW 1573 = system: SW 1573
In short: as §1

EMC-BAC-2 = system: EMC-BAC-2
In short: as §1

NCI-H2126 = system: NCI-H2126
In short: as §1

COR-L 105 = system: COR-L 105
In short: as §1

Work on `COCC1(CO)C(=O)C2CCN1CC2` (centres undefined) [PRIMA-1MET] + CC(C)C[C@H](NC(=O)[C@H](Cc1ccccc1)NC(=O)c1cnccn1)B(O)O [Bortezomib] (partner 0.002 µM) yielded a relative viability (NCI-H2087; first compound 0.2 µM) of 1, a relative viability (NCI-H2087; first compound 0.6325 µM) of 0.673 and a relative viability (NCI-H2087; first compound 2 µM) of 0.795. The relative viability (NCI-H2087; first compound 6.325 µM) was 0.888, the relative viability (NCI-H2087; first compound 20 µM) was 0.647 and the relative viability (LOU-NH91; first compound 0.2 µM) was 0.452. The relative viability (LOU-NH91; first compound 0.6325 µM) was 0.403, the relative viability (LOU-NH91; first compound 2 µM) was 0.541 and the relative viability (LOU-NH91; first compound 6.325 µM) was 0.423. It also gave a relative viability (LOU-NH91; first compound 20 µM) of 0.485, a relative viability (NCI-H727; first compound 0.2 µM) of 0.573 and a relative viability (NCI-H727; first compound 0.6325 µM) of 0.829. For the same compound, the relative viability (NCI-H727; first compound 2 µM) was 0.618, the relative viability (NCI-H727; first compound 6.325 µM) was 0.573 and the relative viability (NCI-H727; first compound 20 µM) was 0.0549. The relative viability (LCLC-97TM1; first compound 0.2 µM) was 0.526, the relative viability (LCLC-97TM1; first compound 0.6325 µM) was 0.428 and the relative viability (LCLC-97TM1; first compound 2 µM) was 0.533. The relative viability (LCLC-97TM1; first compound 6.325 µM) was 0.47, the relative viability (LCLC-97TM1; first compound 20 µM) was 0.0592 and the relative viability (NCI-H1650; first compound 0.2 µM) was 0.207. For the same compound, the relative viability (NCI-H1650; first compound 0.6325 µM) was 0.222, the relative viability (NCI-H1650; first compound 2 µM) was 0.205 and the relative viability (NCI-H1650; first compound 6.325 µM) was 0.188. It also gave a relative viability (NCI-H1650; first compound 20 µM) of 0.197, a relative viability (EKVX; first compound 0.2 µM) of 1.16 and a relative viability (EKVX; first compound 0.6325 µM) of 0.851. It also gave a relative viability (EKVX; first compound 2 µM) of 0.943, a relative viability (EKVX; first compound 6.325 µM) of 1.06 and a relative viability (EKVX; first compound 20 µM) of 0.845. The relative viability (NCI-H1792; first compound 0.2 µM) was 0.959, the relative viability (NCI-H1792; first compound 0.6325 µM) was 0.851 and the relative viability (NCI-H1792; first compound 2 µM) was 0.937. The relative viability (NCI-H1792; first compound 6.325 µM) was 1, the relative viability (NCI-H1792; first compound 20 µM) was 0.939 and the relative viability (NCI-H1563; first compound 0.2 µM) was 0.945. It also gave a relative viability (NCI-H1563; first compound 0.6325 µM) of 0.822, a relative viability (NCI-H1563; first compound 2 µM) of 0.635 and a relative viability (NCI-H1563; first compound 6.325 µM) of 1.15. It also gave a relative viability (NCI-H1563; first compound 20 µM) of 0.386, a relative viability (HCC-827; first compound 0.2 µM) of 1.13 and a relative viability (HCC-827; first compound 0.6325 µM) of 1.01. For the same compound, the relative viability (HCC-827; first compound 2 µM) was 0.971, the relative viability (HCC-827; first compound 6.325 µM) was 1.1 and the relative viability (HCC-827; first compound 20 µM) was 0.956. The relative viability (LU99A; first compound 0.2 µM) was 1.09, the relative viability (LU99A; first compound 0.6325 µM) was 0.957 and the relative viability (LU99A; first compound 2 µM) was 1.15. For the same compound, the relative viability (LU99A; first compound 6.325 µM) was 0.892, the relative viability (LU99A; first compound 20 µM) was 0.103 and the relative viability (HCC-78; first compound 0.2 µM) was 0.694. For the same compound, the relative viability (HCC-78; first compound 0.6325 µM) was 0.521, the relative viability (HCC-78; first compound 2 µM) was 0.452 and the relative viability (HCC-78; first compound 6.325 µM) was 0.485. For the same compound, the relative viability (HCC-78; first compound 20 µM) was 0.0823, the relative viability (EPLC-272H; first compound 0.2 µM) was 1.03 and the relative viability (EPLC-272H; first compound 0.6325 µM) was 0.847. For the same compound, the relative viability (EPLC-272H; first compound 2 µM) was 0.966, the relative viability (EPLC-272H; first compound 6.325 µM) was 1.2 and the relative viability (EPLC-272H; first compound 20 µM) was 0.686. The relative viability (BEN; first compound 0.2 µM) was 0.853, the relative viability (BEN; first compound 0.6325 µM) was 0.75 and the relative viability (BEN; first compound 6.325 µM) was 0.888. The relative viability (BEN; first compound 20 µM) was 0.864, the relative viability (SW 1573; first compound 0.2 µM) was 1.13 and the relative viability (SW 1573; first compound 0.6325 µM) was 0.802. It also gave a relative viability (SW 1573; first compound 2 µM) of 1.03, a relative viability (SW 1573; first compound 6.325 µM) of 0.421 and a relative viability (SW 1573; first compound 20 µM) of 0.0222. The relative viability (EMC-BAC-2; first compound 0.2 µM) was 1.15, the relative viability (EMC-BAC-2; first compound 0.6325 µM) was 1.02 and the relative viability (EMC-BAC-2; first compound 2 µM) was 0.952. For the same compound, the relative viability (EMC-BAC-2; first compound 6.325 µM) was 1.03, the relative viability (EMC-BAC-2; first compound 20 µM) was 1.08 and the relative viability (NCI-H2126; first compound 0.2 µM) was 1.21. For the same compound, the relative viability (NCI-H2126; first compound 0.6325 µM) was 1.13, the relative viability (NCI-H2126; first compound 2 µM) was 1.06 and the relative viability (NCI-H2126; first compound 6.325 µM) was 1.16. It also gave a relative viability (NCI-H2126; first compound 20 µM) of 1.1, a relative viability (COR-L 105; first compound 0.2 µM) of 1.12 and a relative viability (COR-L 105; first compound 0.6325 µM) of 0.588. The relative viability (COR-L 105; first compound 2 µM) was 0.544, the relative viability (COR-L 105; first compound 6.325 µM) was 0.715 and the relative viability (COR-L 105; first compound 20 µM) was 0.163.
